The record followed here is US20230012368A1 (Hoffmann-La Roche Inc., priority 2018, published 2023).

Counter-ions that a name gives are not always drawn.

One experiment has as its system Acinetobacter baumannii ATCC 17978. Kind of experiment: Antimicrobial susceptibility testing: 90% growth inhibitory concentration (IC90) determination. It is filed as cell-based. As to conditions: 90% growth inhibitory concentration; Acinetobacter baumannii ATCC17978; Iso-Sensitest broth, OD 600 nm over 16h; read-out: ATCC17978 IC90. The method, boiled down: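 Compounds serially twofold diluted (e.g. 50 to 0.097 μM final) in Iso-Sensitest broth, inoculated at ~5×10^(5) CFU/ml, incubated at 35±2° C. OD600 read every 20 minutes over 16h. IC90 taken as concentration inhibiting 90% of growth during logarithmic phase.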
Regarding `Cc1cc(Nc2nccn3c(-c4ccc(OC(F)F)cc4)cnc23)ccc1C(=O)N(C)CCC1CCNCC1` [Example 81, 4-((3-(4-(difluoromethoxy)phenyl)imidazo[1,2-a]pyrazin-8-yl)amino)-N,2-dimethyl-N-(2-(piperidin-4-yl)ethyl)benzamide], the IC90 is 200 nM. For the compound `Cc1cc(Nc2nccn3c(-c4ccc(Cl)cc4)cnc23)ccc1C(=O)N(C)CCC1CCNCC1` [Example 88, 4-((3-(4-chlorophenyl)imidazo [1,2-a]pyrazin-8-yl)amino)-N,2-dimethyl-N-(2-(piperidin-4-yl)ethyl)benzamide hydrochloride], the IC90 worked out at 250 nM. Same read-out and setting: under `Cc1cc(Nc2nccn3c(-c4ccc(OC(F)F)c(F)c4)cnc23)ccc1C(=O)N(C)CCC1CCNCC1` [Example 89, 4-((3-(4-(difluoromethoxy)-3-fluorophenyl)imidazo [1,2-a]pyrazin-8-yl)amino)-N,2-dimethyl-N-(2-(piperidin-4-yl)ethyl)benzamide hydrochloride] stands 230 nM.

On to `COc1ccc(-c2cnc3c(Nc4ccc(C(=O)N(C)CCN5CCNCC5)c(Cl)c4)nccn23)cc1F` [Example 90, 2-chloro-4-((3-(3-fluoro-4-methoxyphenyl)imidazo [1,2-a]pyrazin-8-yl)amino)-N-methyl-N-(2-(piperazin-1-yl)ethyl)benzamide hydrochloride], for which the IC90 was 230 nM.

Staying with this experiment, now noted: Acinetobacter baumannii, ATCC17978, 16 h, 90% growth inhibitory concentration; Acinetobacter baumannii ATCC17978; Iso-Sensitest broth, OD 600 nm over 16h; read-out: ATCC17978 IC90.
`CN(CCN1CCNCC1)C(=O)c1ccc(Nc2nccn3c(-c4ccc(OCC#N)c(F)c4F)cnc23)cc1Cl` [Example 74, 2-chloro-4-((3-(4-(cyanomethoxy)-2,3-difluorophenyl)imidazo [1,2-a]pyrazin-8-yl)amino)-N-methyl-N-(2-(piperazin-1-yl)ethyl)benzamide]: the IC90 is 60 nM. For the compound `N#CCOc1ccc(-c2cnc3c(Nc4ccc(C(=O)NCCc5ccncc5)c(Cl)c4)nccn23)c(F)c1F` [Example 75, 2-chloro-4-((3-(4-(cyanomethoxy)-2,3-difluorophenyl)imidazo [1,2-a]pyrazin-8-yl)amino)-N-(2-(pyridin-4-yl)ethyl)benzamide], the IC90 worked out at 90 nM. In the case of `N#CCOc1ccc(-c2cnc3c(Nc4ccc(C(=O)NCCCc5ccncc5)c(Cl)c4)nccn23)c(F)c1F` [Example 76, 2-chloro-4-[[3-[4-(cyanomethoxy)-2,3-difluoro-phenyl]imidazo[l,2-a]pyrazin-8-yl]amino]-N-[3-(4-pyridyl)propyl] benzamide; 2,2,2-trifluoroacetic acid], the concentration for an effect of 90% (IC90) is 170 nM. Regarding `N#CCOc1ccc(-c2cnc3c(Nc4ccc(C(=O)NCCCN5CCNCC5)c(Cl)c4)nccn23)c(F)c1F` [Example 77, 2-chloro-4-((3-(4-(cyanomethoxy)-2,3-difluorophenyl)imidazo [1,2-a]pyrazin-8-yl)amino)-N-(3-(piperazin-1-yl)propyl)benzamide], the IC90 is 100 nM. On to `CN(CCC1CCNCC1)C(=O)c1ccc(Nc2nccn3c(-c4ccc(OCC#N)c(F)c4F)cnc23)cc1Cl` [Example 78, 2-chloro-4-[[3-[4-(cyanomethoxy)-2,3-difluoro-phenyl]imidazo[1,2-a]pyrazin-8-yl]amino]-N-methyl-N-[2-(4-piperidyl)ethyl] benzamide; 2,2,2-trifluoroacetic acid], for which the IC90 is 130 nM. The same measure, in the same setting: under `N#CCOc1ccc(-c2cnc3c(Nc4ccc(C(=O)NCC5CCNCC5)c(Cl)c4)nccn23)c(F)c1F` [Example 79, 2-chloro-4-[[3-[4-(cyanomethoxy)-2,3-difluoro-phenyl]imidazo[1,2-a]pyrazin-8-yl]amino]-N-(4-piperidylmethyl) benzamide] stands 90 nM.

As to `N#CCOc1ccc(-c2cnc3c(Nc4ccc(C(=O)NCCc5ccncc5)c(Cl)c4)nccn23)c(F)c1Cl` [Example 80, 2-chloro-4-[[3-[3-chloro-4-(cyanomethoxy)-2-fluoro-phenyl]imidazo[1,2-a]pyrazin-8-yl]amino]-N-[2-(4-pyridyl)ethyl] benzamide], the IC90 was 270 nM.

Turning to `COc1ccc(-c2cnc3c(Nc4ccc(C(=O)NCC5CCN(C(=N)N)CC5)c(C)c4)nccn23)cc1Cl` [Example 82, N-((1-carbamimidoyl-piperidin-4-yl)methyl)-4-((3-(3-chloro-4-methoxyphenyl)imidazo [1,2-a]pyrazin-8-yl)amino)-2-methylbenzamide], the IC90 was determined as 270 nM. The same measure, in the same setting: to `Cc1cc(Nc2nccn3c(-c4ccc(OC(F)F)cc4)cnc23)ccc1C(=O)NCCCCNC(=N)N` [Example 83, 4-((3-(4-(difluoromethoxy)phenyl)imidazo[1,2-a]pyrazin-8-yl)amino)-N-(4-guanidinobutyl)-2-methylbenzamide] belongs 250 nM; to `N#CCOc1ccc(-c2cnc3c(Nc4ccc(C(=O)NCc5cc[nH]c(=O)c5)c(Cl)c4)nccn23)c(F)c1F` [Example 85, 2-chloro-4-[[3-[4-(cyanomethoxy)-2,3-difluoro-phenyl]imidazo[1,2-a]pyrazin-8-yl]amino]-N-[(2-oxo-1H-pyridin-4-yl)methyl]benzamide], 70 nM; to `Cn1ccc(CNC(=O)c2ccc(Nc3nccn4c(-c5ccc(OCC#N)c(F)c5F)cnc34)cc2Cl)cc1=O` [Example 86, 2-chloro-4-[[3-[4-(cyanomethoxy)-2,3-difluoro-phenyl]imidazo[1,2-a]pyrazin-8-yl]amino]-N-[(1-methyl-2-oxo-4-pyridyl)methyl] benzamide], 140 nM. For `Cn1cc(CNC(=O)c2ccc(Nc3nccn4c(-c5ccc(OCC#N)c(F)c5F)cnc34)cc2Cl)ccc1=O` [Example 87, 2-chloro-4-[[3-[4-(cyanomethoxy)-2,3-difluoro-phenyl]imidazo[1,2-a]pyrazin-8-yl]amino]-N-[(1-methyl-6-oxo-3-pyridyl)methyl] benzamide], the IC90 turned out to be 80 nM. Same read-out and setting: to `CNC(=O)c1ccc(Nc2nccn3c(-c4ccc(OC(F)F)cc4)cnc23)cc1I` [Example 91, 4-((3-(4-(difluoromethoxy)phenyl)imidazo[1,2-a]pyrazin-8-yl)amino)-2-iodo-N-methylbenzamide] belongs 260 nM; to `C=Cc1cc(Nc2nccn3c(-c4ccc(OC(F)F)cc4)cnc23)ccc1C(=O)NC` [Example 92, 4-((3-(4-(difluoromethoxy)phenyl)imidazo[1,2-a]pyrazin-8-yl)amino)-N-methyl-2-vinylbenzamide], 610 nM; to `CNC(=O)c1ccc(Nc2nccn3c(-c4ccc(OC(F)F)cc4)cnc23)cc1Br` [Example 93, 2-bromo-4-((3-(4-(difluoromethoxy)phenyl)imidazo[1,2-a]pyrazin-8-yl)amino)-N-methylbenzamide], 200 nM. In the case of `CCc1cc(Nc2nccn3c(-c4ccc(OC(F)F)c(F)c4F)cnc23)ccc1C(=O)NCCCCN` [Example 94, N-(4-aminobutyl)-4-((3-(4-(difluoromethoxy)-2,3-difluorophenyl)imidazo [1,2-a]pyrazin-8-yl)amino)-2-ethylbenzamide hydrochloride], the concentration for an effect of 90% (IC90) turned out to be 280 nM.

On to `CCc1cc(Nc2nccn3c(-c4ccc(OC(F)F)c(F)c4F)cnc23)ccc1C(=O)NCCCN1CCCC1` [Example 95, 4-((3-(4-(difluoromethoxy)-2,3-difluorophenyl)imidazo [1,2-a]pyrazin-8-yl)amino)-2-ethyl-N-(3-(pyrrolidin-1-yl)propyl)benzamide], for which the IC90 is 190 nM.
